Assay results taken from patent US20080194524A1, “Compounds For the Inhibition of Undesired Cell Proliferation and Use Thereof” (JERINI AG, priority 2003, published 2008).
Like-named read-outs stand apart in the source and are kept apart here. Where a SMILES comes first, the peptide text is derived from it. [ ]: non-standard residue; d: D form. The star is where a group is joined. 2Nal = N[C@@H](Cc1ccc2ccccc2c1)C(=O)O; Bta = N[C@@H](Cc1csc2ccccc12)C(=O)O; Benzyl(4-Cl) = Clc1ccc(C*)cc1; Pip = O=C(O)[C@@H]1CCCCN1; CH2PO3H2 = O=P(O)(O)C*; Inp = O=C(O)C1CCNCC1; Mpa = O=C(O)CCS

Target: hPin1 (Protein interacting with NIMA (-kinase)) (Homo sapiens, UniProt Q13526)
Sequence (Q13526 whole entry): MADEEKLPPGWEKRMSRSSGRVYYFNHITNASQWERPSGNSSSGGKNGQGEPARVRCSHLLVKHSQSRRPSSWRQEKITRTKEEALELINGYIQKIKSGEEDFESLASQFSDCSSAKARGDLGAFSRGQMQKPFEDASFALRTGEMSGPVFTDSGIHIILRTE
Assay: protease-coupled PPIase assay, hPin1
Assay type: biochemical
[1] = hPin1 6 nM, substrate Ac-Ala-Ala-Ser(PO3H2)-Pro-Arg-pNA, trypsin, 35 mM HEPES pH 7.8, 6° C., read-out: Specificity of the inhibition with rotamases, Target T-1 (IC50 class)

Row | Compound | IC50 [1] [µM] | IC50 [µM]
1 | O=C(NC(Cc1ccc2ccccc2c1)c1nnco1)[C@@H]1CCCCN1C(=O)CSCP(=O)(O)O (stereo partly shown) [Compound 75, {2-[2-(2-Naphthalen-2-yl-1-[1,3,4]oxadiazol-2-yl-ethylcarbamoyl)-piperidin-1-yl]-2-oxo-ethylsulfanylmethyl}-phosphonic acid] | < 1 | 
2 | NC(=O)[C@H](Cc1ccc2ccccc2c1)NC(=O)[C@@H]1CCCCN1C(=O)[C@H](CSCP(=O)(O)O)NC(=O)CCC(=O)c1ccc(Cl)cc1 [Compound 37, {3-[2-(1-Carbamoyl-2-naphthalen-2-yl-ethylcarbamoyl)-piperidin-1-yl]-2-[4-(4-chloro-phenyl)-4-oxo-butyrylamino]-3-oxo-propylsulfanylmethyl}-phosphonicacid] | < 1 | 
3 | NC(=O)[C@H](Cc1ccc2ccccc2c1)NC(=O)[C@@H]1CCCCN1C(=O)[C@H](CSCP(=O)(O)O)NC(=O)CCSCc1ccc(Cl)cc1 [Compound 5, {3-[2-(1-Carbamoyl-2-naphthalen-2-yl-ethylcarbamoyl)-piperidin-1-yl]-2-[3-(4-chloro-benzylsulfanyl)-propionylamino]-3-oxo-propylsulfanylmethyl}-phosphonicacid] ([Mpa](Benzyl(4-Cl))C(CH2PO3H2)[Pip][2Nal]-NH2) | < 1 | 
4 | NC(=O)[C@H](Cc1ccc2ccccc2c1)NC(=O)[C@@H]1CCCCN1C(=O)[C@H](CSCP(=O)(O)O)NC(=O)CCN1CCCCC1 [Compound 54, [3-[2-(1-Carbamoyl-2-naphthalen-2-yl-ethylcarbamoyl)-piperidin-1-yl]-3-oxo-2-(3-piperidin-1-yl-propionylamino)-propylsulfanylmethyl]-phosphonicacid] | 1 to 10 | 
5 | CC(C)(C)NC(=O)[C@H](Cc1ccc2ccccc2c1)NC(=O)[C@@H]1CCCCN1C(=O)CSCP(=O)(O)O [Compound 63, {2-[2-(1-tert-Butylcarbamoyl-2-naphthalen-2-yl-ethylcarbamoyl)-piperidin-1-yl]-2-oxo-ethylsulfanylmethyl}-phosphonicacid] | < 1 | 
6 | NC(=O)[C@H](Cc1ccc2ccccc2c1)NC(=O)[C@@H]1CCCCN1C(=O)CSCP(=O)(O)O [Compound 28, {2-[2-(1-Carbamoyl-2-naphthalen-2-yl-ethylcarbamoyl)-piperidin-1-yl]-2-oxo-ethylsulfanylmethyl}-phosphonic acid] | < 1 | 
7 | NC(=O)[C@H](Cc1ccc2ccccc2c1)NC(=O)[C@@H]1CCCCN1C(=O)[C@H](CSCP(=O)(O)O)NC(=O)Cc1ccccc1 [Compound 21, {3-[2-(1-Carbamoyl-2-naphthalen-2-yl-ethylcarbamoyl)-piperidin-1-yl]-3-oxo-2-phenylacetylamino-propylsulfanylmethyl}-phosphonicacid] | < 1 | 
8 | NC(=O)[C@H](Cc1ccc2ccccc2c1)NC(=O)[C@@H]1CCCCN1C(=O)[C@H](CSCP(=O)(O)O)NS(=O)(=O)Cc1ccccc1 [Compound 32, {3-[2-(1-Carbamoyl-2-naphthalen-2-yl-ethylcarbamoyl)-piperidin-1-yl]-3-oxo-2-phenylmethane-sulfonylaminopropylsulfanyl-methyl}-phosphonic acid] | < 1 | 
9 | NC(=O)[C@H](Cc1ccc2ccccc2c1)NC(=O)[C@@H]1CCCCN1C(=O)[C@H](CSCP(=O)(O)O)NC(=O)CCCc1ccccc1 [Compound 23, [3-[2-(1-Carbamoyl-2-naphthalen-2-yl-ethylcarbamoyl)-piperidin-1-yl]-3-oxo-2-(4-phenyl-butyrylamino)-propylsulfanylmethyl]-phosphonicacid] | < 1 | 
10 | NC(=O)[C@H](Cc1ccc2ccccc2c1)NC(=O)[C@@H]1CCCCN1C(=O)[C@H](CSCP(=O)(O)O)NS(=O)(=O)CCc1ccccc1 [Compound 49, [3-[2-(1-Carbamoyl-2-naphthalen-2-yl-ethylcarbamoyl)-piperidin-1-yl]-3-oxo-2-(2-phenyl-ethanesulfonylamino)-propylsulfanylmethyl]-phosphonicacid] | < 1 | 
11 | NC(=O)[C@H](Cc1ccc2ccccc2c1)NC(=O)[C@@H]1CCCCN1C(=O)[C@H](CSCP(=O)(O)O)NC(=O)OCCc1ccccc1 [Compound 47, {3-{2-(1-Carbamoyl-2-naphthalen-2-yl-ethylcarbamoyl)-piperidin-1-yl]-3-oxo-2-phenethyloxycarbonyl-aminopropylsulfanylmethyl}-phosphonic acid] | 1 to 10 | 
12 | Cc1csc(C(Cc2ccc3ccccc3c2)NC(=O)[C@@H]2CCCCN2C(=O)CSCP(=O)(O)O)n1 (stereo partly shown) [Compound 74, (2-{2-[1-(4-Methyl-thiazol-2-yl)-2-naphthalen-2-yl-ethylcarbamoyl]-piperidin-1-yl}-2-oxo-ethylsulfanylmethyl)-phosphonic acid] | 1 to 10 | 
13 | NC(=O)[C@H](Cc1ccc2ccccc2c1)NC(=O)[C@@H]1CCCCN1C(=O)CCSCP(=O)(O)O [Compound 29, {3-[2-(1-Carbamoyl-2-naphthalen-2-yl-ethylcarbamoyl)-piperidin-1-yl]-3-oxo-propylsulfanylmethyl}-phosphonic acid] | < 1 | 
14 | CC(=O)N[C@@H](Cc1csc2ccccc12)C(=O)N[C@@H](CSCP(=O)(O)O)CN1CCCC[C@H]1C(=O)N[C@@H](Cc1ccc2ccccc2c1)C(N)=O [Compound 25, {2-(2-Acetylamino-3-benzo[b]thiophen-3-yl-propionylamino)-3-[2-(1-carbamoyl-2-naphthalen-2-yl-ethylcarbamoyl)-piperidin-1-yl]-propylsulfanylmethyl}-phosphonicacid] | < 1 | 
15 | O=C(NC(Cc1ccc2ccccc2c1)c1nnc[nH]1)[C@@H]1CCCCN1C(=O)CSCP(=O)(O)O (stereo partly shown) [Compound 76, (2-{2-[2-Naphthalen-2-yl-1-(4H-[1,2,4]triazol-3-yl)-ethylcarbamoyl]-piperidin-1-yl}-2-oxo-ethylsulfanylmethyl)-phosphonic acid] | < 1 | 
16 | NC(=O)[C@H](Cc1ccc2ccccc2c1)NC(=O)[C@@H]1CCCCN1C(=O)[C@H](CSCP(=O)(O)O)NC(=O)C1(c2ccccc2)CCCC1 [Compound 33, {3-[2-(1-Carbamoyl-2-naphthalen-2-yl-ethylcarbamoyl)-piperidin-1-yl]-3-oxo-2-[(1-phenyl-cyclopentanecarbonyl)-amino]-propylsulfanylmethyl}-phosphonicacid] | 1 to 10 | 
17 | NC(=O)[C@H](Cc1ccc2ccccc2c1)NC(=O)[C@@H]1CCCCN1C(=O)[C@H](CSCP(=O)(O)O)NC(=O)C1CCc2ccccc2C1 (stereo partly shown) [Compound 15, {3-[2-(1-Carbamoyl-2-naphthalen-2-yl-ethylcarbamoyl)-piperidin-1-yl]-3-oxo-2-[(1.2.3.4-tetrahydro-naphthalene-2-carbonyl)-amino]-propylsulfanylmethyl}-phosphonicacid] | 1 to 10 | 
18 | CC(=O)N[C@@H](Cc1csc2ccccc12)C(=O)N[C@@H](COCP(=O)(O)O)C(=O)N1CCCC[C@H]1C(=O)N[C@@H](Cc1ccc2ccccc2c1)C(N)=O [Compound 1, {2-(2-Acetylamino-3-benzo[b]thiophen-3-yl-propionylamino)-3-[2-(1-carbamoyl-2-naphthalen-2-yl-ethylcarbamoyl)-piperidin-1-yl]-3-oxo-propoxymethyl}-phosphonicacid] (Ac-[Bta]S(CH2PO3H2)[Pip][2Nal]-NH2) |  | 1 to 10
19 | O=C(NCCc1ccccc1)[C@@H]1CCCCN1C(=O)CSCP(=O)(O)O [Compound 67, [2-Oxo-2-(2-phenethylcarbamoyl-piperidin-1-yl)-ethylsulfanylmethyl]-phosphonicacid] | 1 to 10 | 
20 | CC(SCP(=O)(O)O)C(=O)N1CCCC[C@H]1C(=O)N[C@@H](Cc1ccc2ccccc2c1)C(N)=O (stereo in doubt) [Compound 65, {2-[2-(1-Carbamoyl-2-naphthalen-2-yl-ethylcarbamoyl)-piperidin-1-yl]-1-methyl-2-oxo-ethylsulfanylmethyl}-phosphonicacid] | 1 to 10 | 
21 | NC(=O)[C@H](Cc1ccc2ccccc2c1)NC(=O)[C@@H]1CCCCN1C(=O)[C@H](CSCP(=O)(O)O)NC(=O)CN1CCNCC1 [Compound 41, [3-[2-(1-Carbamoyl-2-naphthalen-2-yl-ethylcarbamoyl)-piperidin-1-yl]-3-oxo-2-(2-piperazin-1-yl-acetylamino)-propylsulfanyl-methyl]-phosphonic acid] | 1 to 10 | 
22 | Cc1cc(C)c(S(=O)(=O)N[C@@H](CSCP(=O)(O)O)C(=O)N2CCCC[C@H]2C(=O)N[C@@H](Cc2ccc3ccccc3c2)C(N)=O)c(C)c1 [Compound 52, [3-[2-(1-Carbamoyl-2-naphthalen-2-yl-ethylcarbamoyl)-piperidin-1-yl]-3-oxo-2-(2.4.6-trimethyl-benzenesulfonylamino)-propylsulfanylmethyl]-phosphonicacid] | 1 to 10 | 
23 | CC(C)COC(=O)N[C@@H](CSCP(=O)(O)O)C(=O)N1CCCC[C@H]1C(=O)N[C@@H](Cc1ccc2ccccc2c1)C(N)=O [Compound 43, {3-[2-(1-Carbamoyl-2-naphthalen-2-yl-ethylcarbamoyl)-piperidin-1-yl]-2-isobutoxycarbonylamino-3-oxo-propylsulfanylmethyl}-phosphonic acid] | 1 to 10 | 
24 | CC(C)(C)NC(=O)[C@H](Cc1ccc2ccccc2c1)NC(=O)[C@@H]1CCCCN1CCSCP(=O)(O)O [Compound 71, {2-[2-(1-tert-Butylcarbamoyl-2-naphthalen-2-yl-ethylcarbamoyl)-piperidin-1-yl]-ethylsulfanylmethyl}-phosphonicacid] | < 1 | 
25 | NC(=O)[C@H](Cc1ccc2ccccc2c1)NC(=O)[C@@H]1CCCCN1C(=O)[C@H](CSCP(=O)(O)O)NC(=O)[C@H](Cc1csc2ccccc12)NC(=O)C1CCNCC1 [Compound 18, {2-{3-Benzo[b]thiophen-3-yl-2-[(piperidine-4-carbonyl)-amino]-propionylamino}-3-[2-(1-carbamoyl-2-naphthalen-2-yl-ethylcarbamoyl)-piperidin-1-yl]-3-oxo-propylsulfanylmethyl}-phosphonic acid] (H-[Inp][Bta]C(CH2PO3H2)[Pip][2Nal]-NH2) |  | < 1
